The values that follow come from PubChem BioAssay AID258 (DTP/NCI, 2004).

This assay concerns CD2F1 mice, L1210 leukemia sc, survival T/C. The assay is described as follows: NCI In Vivo Anticancer Drug Screen. Data for tumor model L1210 Leukemia (subcutaneous) in CD2F1 (CDF1) mice. As to conditions: endpoint: median survival time, higher = longer survival. The protocol:
The antitumor activity of compounds was measured in mice bearing transplantable tumors. Survival or tumor size were measured and the results are expressed as the measurement made in the treated group (T) divided by the measurement made in the vehicle treated control group (C). The tumor model used in this assay is L1210 Leukemia (subcutaneous) in CD2F1 (CDF1) mice

[1] abbreviates: dose: 23.0 mg/kg/injection, schedule: Q01DX Z (sc), vehicle: methylcellulose (MC).
[2] abbreviates: dose: 39.0 mg/kg/injection, schedule: Q01DX Z (sc), vehicle: methylcellulose (MC).
The mark [3] stands for this setting: dose: 108.0 mg/kg/injection, schedule: Q01DX Z (sc), vehicle: methylcellulose (MC).
[4] abbreviates: dose: 180.0 mg/kg/injection, schedule: Q01DX Z (sc), vehicle: methylcellulose (MC).

Values joined by “and” are separate entries in the source; they are usually repeats but may differ in a detail not shown here. Equal values may be shown once. Toxic doses and inconclusive results are not listed.

Consider `O=C1NC(=O)C2C3C=CC(C12)C1C2C(=O)NC(=O)C2C31` (stereo not drawn), for which the T/C is 108 % of control (dose: 3.0 mg/kg/injection, schedule: Q01DX005 (iv), vehicle: other); 111 % of control (dose: 6.0 mg/kg/injection, schedule: Q01DX005 (ip), vehicle: other); 104 % of control (dose: 6.0 mg/kg/injection, schedule: Q01DX005 (iv), vehicle: other); 105 % of control (dose: 6.0 mg/kg/injection, schedule: Q01DX005 (sc), vehicle: other); 104 % of control (dose: 12.0 mg/kg/injection, schedule: Q01DX005 (ip), vehicle: other); 104 % of control and 107 % of control (dose: 12.0 mg/kg/injection, schedule: Q01DX005 (iv), vehicle: other). The T/C runs as follows: (dose: 12.0 mg/kg/injection, schedule: Q01DX005 (sc), vehicle: other) 108 % of control; (dose: 12.0 mg/kg/injection, schedule: Q01DX009 (ip), vehicle: other) 115 % of control; (dose: 14.0 mg/kg/injection, schedule: Q01DX009 (ip), vehicle: water) 110 % of control; (dose: 17.2 mg/kg/injection, schedule: Q01DX005 (iv), vehicle: other) 107 % of control; (dose: 17.2 mg/kg/injection, schedule: Q01DX009 (ip), vehicle: other) 122 % of control; (dose: 18.0 mg/kg/injection, schedule: Q01DX009 (ip), vehicle: clinical formulation) 121 % of control. Moreover, the T/C is 110 % of control (dose: 24.5 mg/kg/injection, schedule: Q01DX005 (iv), vehicle: other); 113 % of control (dose: 25.0 mg/kg/injection, schedule: Q01DX005 (ip), vehicle: other); 105 % of control (dose: 25.0 mg/kg/injection, schedule: Q01DX005 (ip), vehicle: saline with Tween-80); 114 % of control (dose: 25.0 mg/kg/injection, schedule: Q01DX005 (sc), vehicle: other); 150 % of control (dose: 30.0 mg/kg/injection, schedule: Q01DX009 (ip), vehicle: clinical formulation); 203 % of control (dose: 38.9 mg/kg/injection, schedule: Q01DX009 (ip), vehicle: water). The T/C was 164 % of control (dose: 50.0 mg/kg/injection, schedule: Q01DX005 (ip), vehicle: other); 160 % of control and 175 % of control (dose: 50.0 mg/kg/injection, schedule: Q01DX005 (iv), vehicle: other); 105 % of control (dose: 50.0 mg/kg/injection, schedule: Q01DX005 (oral), vehicle: other); 152 % of control (dose: 50.0 mg/kg/injection, schedule: Q01DX005 (sc), vehicle: other); 192 % of control (dose: 50.0 mg/kg/injection, schedule: Q01DX009 (ip), vehicle: clinical formulation); 166 % of control (dose: 50.0 mg/kg/injection, schedule: Q01DX009 (ip), vehicle: other). For the same molecule, the T/C (dose: 64.8 mg/kg/injection, schedule: Q01DX009 (ip), vehicle: water) is 291 % of control; the T/C (dose: 71.4 mg/kg/injection, schedule: Q01DX005 (iv), vehicle: other) is 247 % of control; the T/C (dose: 71.4 mg/kg/injection, schedule: Q01DX009 (ip), vehicle: other) is 250 % of control; the T/C (dose: 83.3 mg/kg/injection, schedule: Q01DX009 (ip), vehicle: clinical formulation) was 106 % of control; the T/C (dose: 100.0 mg/kg/injection, schedule: Q01DX005 (ip), vehicle: saline with Tween-80) is 204 % of control; the T/C (dose: 100.0 mg/kg/injection, schedule: Q01DX005 (oral), vehicle: other) is 108 % of control. Moreover, the T/C reads like this: (dose: 100.0 mg/kg/injection, schedule: Q01DX005 (sc), vehicle: other) 89 % of control; (dose: 200.0 mg/kg/injection, schedule: Q01DX005 (oral), vehicle: other) 113 % of control; (dose: 252.0 mg/kg/injection, schedule: Q01DX009 (oral), vehicle: other) 171 % of control; (dose: 378.0 mg/kg/injection, schedule: Q01DX009 (oral), vehicle: other) 162 % of control; (dose: 400.0 mg/kg/injection, schedule: Q01DX005 (oral), vehicle: other) 108 % of control; (dose: 800.0 mg/kg/injection, schedule: Q01DX005 (oral), vehicle: other) 229 % of control. For the same molecule, the T/C by setting is: (dose: 850.0 mg/kg/injection, schedule: Q01DX009 (oral), vehicle: other) 182 % of control; (dose: 1274.0 mg/kg/injection, schedule: Q01DX009 (oral), vehicle: other) 225 % of control.

Take `CSc1nc2[nH]cnc(=S)c2[nH]1`: the T/C is, setting by setting: under setting [1], 90 % of control; under setting [2], 100 % of control; (dose: 65.0 mg/kg/injection, schedule: Q01DX Z (sc), vehicle: methylcellulose (MC)) 100 % of control; under setting [3], 100 % of control; under setting [4], 100 % of control; (dose: 300.0 mg/kg/injection, schedule: Q01DX Z (sc), vehicle: methylcellulose (MC)) 100 % of control.

Take `O=C(Nc1ccc(C2=NCCN2)cc1)c1ccc(C(=O)Nc2ccc(C3=NCCN3)cc2)c(Cl)c1`: the T/C reads like this: (dose: 5.0 mg/kg/injection, schedule: Q01DX Z (iv), vehicle: water) 100 % of control; (dose: 8.4 mg/kg/injection, schedule: Q01DX Z (iv), vehicle: water) 100 % of control; (dose: 8.4 mg/kg/injection, schedule: Q01DX Z (sc), vehicle: water) 120 % of control and 227 % of control; (dose: 14.0 mg/kg/injection, schedule: Q01DX Z (iv), vehicle: water) 100 % of control; (dose: 14.0 mg/kg/injection, schedule: Q01DX Z (sc), vehicle: water) 188 % of control and 195 % of control and 233 % of control; (dose: 23.0 mg/kg/injection, schedule: Q01DX Z (sc), vehicle: water) 205 % of control and 220 % of control and 261 % of control. Besides, the T/C by setting is: (dose: 39.0 mg/kg/injection, schedule: Q01DX Z (iv), vehicle: water) 111 % of control; (dose: 39.0 mg/kg/injection, schedule: Q01DX Z (sc), vehicle: water) 211 % of control and 225 % of control and 183 % of control; (dose: 65.0 mg/kg/injection, schedule: Q01DX Z (iv), vehicle: water) 155 % of control; (dose: 65.0 mg/kg/injection, schedule: Q01DX Z (sc), vehicle: water) 188 % of control and 200 % of control and 166 % of control.

Take `O=C[C@@H](CO)O[C@H](C=O)c1c[nH]c(=O)[nH]c1=O`: the T/C (dose: 54.0 mg/kg/injection, schedule: Q04DX003 (ip), vehicle: saline) was 106 % of control and the T/C (dose: 90.0 mg/kg/injection, schedule: Q04DX003 (ip), vehicle: saline) was 123 % of control.

For `ONc1nc(NO)c2[nH]cnc2n1`, the T/C was 100 % of control (dose: 8.0 mg/kg/injection, schedule: Q01DX Z (sc), vehicle: steriod suspending solution); 175 % of control (dose: 32.0 mg/kg/injection, schedule: Q01DX Z (sc), vehicle: steriod suspending solution); 200 % of control (dose: 64.0 mg/kg/injection, schedule: Q01DX Z (sc), vehicle: steriod suspending solution).

As for `Oc1cc(CN(CCCl)CCCl)c(O)cc1CN(CCCl)CCCl`, the T/C (dose: 23.4 mg/kg/injection, schedule: Q01DX Z (sc), vehicle: methylcellulose (MC)) was 105 % of control; the T/C (dose: 38.9 mg/kg/injection, schedule: Q01DX Z (sc), vehicle: methylcellulose (MC)) is 110 % of control; the T/C (dose: 64.8 mg/kg/injection, schedule: Q01DX Z (sc), vehicle: methylcellulose (MC)) is 115 % of control; the T/C under setting [3] is 115 % of control; the T/C under setting [4] is 105 % of control.

Consider `N#[N+]c1cnc([O-])[nH]c1=O`, for which the T/C runs as follows: (dose: 14.0 mg/kg/injection, schedule: Q01DX Z (sc), vehicle: methylcellulose (MC)) 100 % of control; under setting [1], 100 % of control; under setting [2], 122 % of control; (dose: 39.0 mg/kg/injection, schedule: Q01DX Z (sc), vehicle: other) 100 % of control; (dose: 65.0 mg/kg/injection, schedule: Q01DX Z (sc), vehicle: other) 116 % of control.

Regarding `CC(C)(C)N1CC1CNC(=O)C(=O)NCC1CN1C(C)(C)C` (stereo not drawn), the T/C reads like this: (dose: 3.13 mg/kg/injection, schedule: Q01DX009 (ip), vehicle: saline with Tween-80) 107 % of control and 108 % of control; (dose: 6.25 mg/kg/injection, schedule: Q01DX009 (ip), vehicle: saline with Tween-80) 122 % of control; (dose: 12.5 mg/kg/injection, schedule: Q01DX009 (ip), vehicle: saline with Tween-80) 157 % of control; (dose: 25.0 mg/kg/injection, schedule: Q01DX009 (ip), vehicle: saline with Tween-80) 86 % of control.
